Measurements from PMC8459971, “Evaluation of the hepatotoxicity of the novel GPR40 (FFAR1) agonist CPL207280 in the rat and monkey” (PLoS ONE, 2021).
Where “and” joins values, the source holds several entries; their conditions need not be identical. Equal values may be shown once.

Assays:
MRP2 = MRP2 (Homo sapiens, UniProt Q92887); test: Vesicular transport inhibition assay, MRP2; conditions: MRP2; reference inhibitor 200 µM;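 further: membrane vesicles with probe substrate plus 2 mM glutathione, incubated with 4 mM ATP or AMP (AMP as background control), vesicle-retained substrate measured by liquid scintillation counting; ATP 4 mM vs AMP background separates transporter uptake from diffusion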
Chain of MRP2 (Q92887 whole entry, the tested form may be a part): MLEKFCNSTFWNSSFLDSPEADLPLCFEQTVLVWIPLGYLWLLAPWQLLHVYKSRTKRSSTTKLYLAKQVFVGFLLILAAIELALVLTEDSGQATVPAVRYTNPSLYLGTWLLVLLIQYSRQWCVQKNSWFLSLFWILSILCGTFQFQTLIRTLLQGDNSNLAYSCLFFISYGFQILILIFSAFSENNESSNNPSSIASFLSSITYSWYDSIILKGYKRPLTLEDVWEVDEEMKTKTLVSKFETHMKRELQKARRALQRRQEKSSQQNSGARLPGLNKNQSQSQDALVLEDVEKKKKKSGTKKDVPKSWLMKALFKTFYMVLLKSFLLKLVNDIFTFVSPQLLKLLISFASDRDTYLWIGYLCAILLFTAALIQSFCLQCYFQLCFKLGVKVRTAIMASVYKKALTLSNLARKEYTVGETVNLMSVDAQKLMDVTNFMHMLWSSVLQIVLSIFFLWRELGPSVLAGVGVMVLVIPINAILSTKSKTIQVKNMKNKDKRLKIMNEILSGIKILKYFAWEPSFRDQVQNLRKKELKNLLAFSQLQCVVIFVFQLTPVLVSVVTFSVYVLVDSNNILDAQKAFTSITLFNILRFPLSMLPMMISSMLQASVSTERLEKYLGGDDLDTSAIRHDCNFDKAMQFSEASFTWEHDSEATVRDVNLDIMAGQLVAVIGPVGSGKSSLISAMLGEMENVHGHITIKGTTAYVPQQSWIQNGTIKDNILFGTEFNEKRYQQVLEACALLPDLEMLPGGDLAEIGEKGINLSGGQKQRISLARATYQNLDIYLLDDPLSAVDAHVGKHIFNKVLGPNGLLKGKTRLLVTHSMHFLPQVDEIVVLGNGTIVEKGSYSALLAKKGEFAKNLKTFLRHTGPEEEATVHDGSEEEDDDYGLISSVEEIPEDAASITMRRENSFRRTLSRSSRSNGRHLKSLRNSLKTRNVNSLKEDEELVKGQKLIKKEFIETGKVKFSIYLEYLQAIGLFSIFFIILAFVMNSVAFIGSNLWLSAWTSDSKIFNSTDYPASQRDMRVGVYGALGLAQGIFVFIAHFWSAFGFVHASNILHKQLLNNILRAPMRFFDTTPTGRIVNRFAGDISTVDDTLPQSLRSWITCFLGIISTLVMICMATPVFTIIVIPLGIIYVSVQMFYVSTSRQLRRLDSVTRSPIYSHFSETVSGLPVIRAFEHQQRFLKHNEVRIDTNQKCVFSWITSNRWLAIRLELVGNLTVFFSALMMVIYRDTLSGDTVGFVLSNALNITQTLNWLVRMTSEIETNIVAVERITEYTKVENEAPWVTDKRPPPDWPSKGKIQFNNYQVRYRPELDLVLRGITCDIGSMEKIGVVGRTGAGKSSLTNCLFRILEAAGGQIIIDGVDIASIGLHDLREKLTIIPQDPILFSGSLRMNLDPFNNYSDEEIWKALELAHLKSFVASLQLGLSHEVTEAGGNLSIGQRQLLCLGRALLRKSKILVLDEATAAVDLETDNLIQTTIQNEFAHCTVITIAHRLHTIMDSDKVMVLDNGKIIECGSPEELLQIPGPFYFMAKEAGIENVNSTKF
Description: (§2) In the vesicular transport inhibition assay (for BSEP, MRP) compounds were incubated with membrane vesicle preparations and the probe substrate. Incubations were carried out in the presence of 4 mM ATP or AMP to distinguish between transporter-mediated uptake and passive diffusion into the vesicles. For MRP2 and MRP3, reactions were carried out in the presence of 2 mM glutathione. Compounds were added to the reaction mixture in 0.75 μL of solvent (1% of the final incubation volume). […] Reactions were initiated by the addition of 25 μL of 12 mM MgATP (or 12 mM AMP in assay buffer as a background control) and preincubated separately. Reactions were quenched by the addition of 200 μL of ice-cold washing buffer and immediate filtration via glass fiber filters mounted on a 96-well plate (filter plate). The filters were washed (5 × 200 μL of ice-cold washing buffer), dried, and the amount of substrate inside the filtered vesicles was determined by liquid scintillation counting.

OAT1 = target: T1, OAT1 (Homo sapiens, UniProt Q4U2R8); test: Uptake transporter inhibition assay, OAT1; conditions: OAT1; reference inhibitor 300 µM;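 further: HEK293FT cells expressing OAT1 or mock, uptake of radiolabeled probe substrate at 37 °C in HBSS pH 7.4 with test compound or solvent, cell lysate read by liquid scintillation counting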
T1 sequence (Q4U2R8 1-563): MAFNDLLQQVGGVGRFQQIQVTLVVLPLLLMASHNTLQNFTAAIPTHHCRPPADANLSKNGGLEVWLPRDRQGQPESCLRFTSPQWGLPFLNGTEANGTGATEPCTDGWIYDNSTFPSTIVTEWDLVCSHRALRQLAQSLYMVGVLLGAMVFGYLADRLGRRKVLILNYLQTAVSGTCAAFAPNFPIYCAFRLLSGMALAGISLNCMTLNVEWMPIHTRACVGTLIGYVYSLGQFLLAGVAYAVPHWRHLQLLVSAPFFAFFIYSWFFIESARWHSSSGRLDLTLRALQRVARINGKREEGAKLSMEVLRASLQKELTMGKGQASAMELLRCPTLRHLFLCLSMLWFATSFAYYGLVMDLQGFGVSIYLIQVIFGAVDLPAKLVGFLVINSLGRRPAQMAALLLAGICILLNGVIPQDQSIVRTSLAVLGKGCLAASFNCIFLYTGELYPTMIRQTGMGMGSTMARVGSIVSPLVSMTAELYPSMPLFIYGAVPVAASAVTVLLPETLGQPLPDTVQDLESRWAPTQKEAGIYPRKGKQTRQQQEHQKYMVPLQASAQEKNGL
Description: For the uptake transporter inhibition assay, cells were washed twice with 100 μL of the appropriate buffer (HK, pH 7.4) for OATP1B1, followed by HBSS (pH 7.4) for (NTCP, OAT1, OAT2v1, OATP1A2, and OATP1B3). Uptake experiments were carried out at 37 ± 1°C in 50 μL of the respective buffer containing the probe substrate and the compound or solvent. […] After the experiment, cells were washed twice with 100 μL of cold appropriate buffer and lysed with 50 μL of 0.1 M NaOH. Radiolabeled probe substrate transport was determined by measuring an aliquot (35 μL) from each well for liquid scintillation counting.

[1] = Metabolite profiling, human hepatocytes; type: in vitro ADME; conditions: human hepatocytes, 10 μM CPL207280, 60 min; ND = not detected
Description: (§1) Suspensions of cryopreserved human, rat, and monkey hepatocytes were pooled from a minimum of three individuals. All cryopreserved hepatocytes were purchased from a commercial supplier. […] The cell density was 0.5 ×10^6 viable cells/mL. The final DMSO concentration during the incubation was 0.25%. Control incubations were performed in lysed cells to reveal any non-enzymatic degradation. Two control compounds were identified in each species. Samples (50 μL) were removed from the incubation mixture at 0, 10, 20, 40, 60, and 120 min and added to methanol containing an internal standard (100 μL) to stop the reaction. The samples were centrifuged (4000 x g at 4°C for 30 min) and the supernatants at each time point were pooled for analysis by LC MS/MS using Cyprotex generic methods. Following hepatocyte stability assays, the samples were utilized for metabolite profiling. […] Metabolites were characterized using a mass spectrometer comprising Waters Xevo QT of G2-S, Acquity Binary Solvent Manager, Acquity Column Manager, and 2777 Autosampler.

[2] = Metabolite profiling, rat hepatocytes; type: in vitro ADME; conditions: 10 μM CPL207280, 120 min, ND = not detected
Description: as §1

MRP3 = MRP3 (Homo sapiens, UniProt O15438); test: Vesicular transport inhibition assay, MRP3; conditions: MRP3; reference inhibitor 150 µM;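 further: membrane vesicles with radiolabelled probe substrate and 2 mM glutathione, 4 mM ATP versus AMP background control, vesicle-trapped substrate quantified by liquid scintillation counting after filtration; ATP 4 mM vs AMP background separates transporter uptake from diffusion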
Chain of MRP3 (O15438 whole entry, the tested form may be a part): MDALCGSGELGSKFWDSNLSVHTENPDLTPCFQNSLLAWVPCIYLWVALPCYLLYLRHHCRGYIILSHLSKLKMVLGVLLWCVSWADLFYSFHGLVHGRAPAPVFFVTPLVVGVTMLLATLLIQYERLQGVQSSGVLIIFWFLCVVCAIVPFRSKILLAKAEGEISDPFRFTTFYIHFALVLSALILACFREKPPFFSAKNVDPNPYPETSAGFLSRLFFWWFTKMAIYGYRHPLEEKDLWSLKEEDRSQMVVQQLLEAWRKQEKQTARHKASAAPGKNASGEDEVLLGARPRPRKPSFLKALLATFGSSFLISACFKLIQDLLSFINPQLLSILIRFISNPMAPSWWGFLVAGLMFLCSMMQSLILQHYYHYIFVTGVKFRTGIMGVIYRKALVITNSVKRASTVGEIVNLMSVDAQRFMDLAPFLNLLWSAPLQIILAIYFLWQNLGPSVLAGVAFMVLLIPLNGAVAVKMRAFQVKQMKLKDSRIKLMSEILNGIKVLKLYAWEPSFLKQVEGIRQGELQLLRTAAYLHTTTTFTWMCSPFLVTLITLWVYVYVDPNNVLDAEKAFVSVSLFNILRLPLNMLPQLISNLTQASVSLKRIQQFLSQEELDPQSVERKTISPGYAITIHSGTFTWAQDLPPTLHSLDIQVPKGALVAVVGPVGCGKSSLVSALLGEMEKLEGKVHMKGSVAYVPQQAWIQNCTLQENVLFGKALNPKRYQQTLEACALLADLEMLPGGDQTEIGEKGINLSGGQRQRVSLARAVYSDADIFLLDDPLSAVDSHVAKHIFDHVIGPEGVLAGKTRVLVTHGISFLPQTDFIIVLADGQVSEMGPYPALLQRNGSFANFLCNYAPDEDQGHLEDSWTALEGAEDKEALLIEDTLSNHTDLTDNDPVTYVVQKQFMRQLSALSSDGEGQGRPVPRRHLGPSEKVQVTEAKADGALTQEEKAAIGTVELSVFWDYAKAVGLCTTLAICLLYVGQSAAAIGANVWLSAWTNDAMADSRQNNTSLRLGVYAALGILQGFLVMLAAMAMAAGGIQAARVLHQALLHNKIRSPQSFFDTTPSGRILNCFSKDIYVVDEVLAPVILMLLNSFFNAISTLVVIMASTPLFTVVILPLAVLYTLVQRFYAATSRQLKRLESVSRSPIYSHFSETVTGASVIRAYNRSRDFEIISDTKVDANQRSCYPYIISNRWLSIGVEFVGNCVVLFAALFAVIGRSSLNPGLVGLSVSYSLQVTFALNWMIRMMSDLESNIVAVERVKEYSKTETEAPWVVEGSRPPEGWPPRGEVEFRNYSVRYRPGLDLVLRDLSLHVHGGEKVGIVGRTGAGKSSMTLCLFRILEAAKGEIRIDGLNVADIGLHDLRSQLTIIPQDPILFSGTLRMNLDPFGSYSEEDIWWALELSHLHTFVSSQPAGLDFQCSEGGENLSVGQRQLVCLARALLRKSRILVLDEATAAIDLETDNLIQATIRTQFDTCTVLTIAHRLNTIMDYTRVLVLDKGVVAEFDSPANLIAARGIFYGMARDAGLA
Description: as §2

MRP4 = target: T2, MRP4 (Homo sapiens, UniProt O15439); test: Vesicular transport inhibition assay, MRP4; conditions: MRP4; reference inhibitor 150 µM;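 further: membrane vesicles with MRP4 incubated with compound and probe substrate plus 4 mM ATP, or AMP as passive-diffusion background, vesicular substrate uptake read by liquid scintillation counting; ATP 4 mM vs AMP background separates transporter uptake from diffusion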
T2 sequence (O15439 1-1325): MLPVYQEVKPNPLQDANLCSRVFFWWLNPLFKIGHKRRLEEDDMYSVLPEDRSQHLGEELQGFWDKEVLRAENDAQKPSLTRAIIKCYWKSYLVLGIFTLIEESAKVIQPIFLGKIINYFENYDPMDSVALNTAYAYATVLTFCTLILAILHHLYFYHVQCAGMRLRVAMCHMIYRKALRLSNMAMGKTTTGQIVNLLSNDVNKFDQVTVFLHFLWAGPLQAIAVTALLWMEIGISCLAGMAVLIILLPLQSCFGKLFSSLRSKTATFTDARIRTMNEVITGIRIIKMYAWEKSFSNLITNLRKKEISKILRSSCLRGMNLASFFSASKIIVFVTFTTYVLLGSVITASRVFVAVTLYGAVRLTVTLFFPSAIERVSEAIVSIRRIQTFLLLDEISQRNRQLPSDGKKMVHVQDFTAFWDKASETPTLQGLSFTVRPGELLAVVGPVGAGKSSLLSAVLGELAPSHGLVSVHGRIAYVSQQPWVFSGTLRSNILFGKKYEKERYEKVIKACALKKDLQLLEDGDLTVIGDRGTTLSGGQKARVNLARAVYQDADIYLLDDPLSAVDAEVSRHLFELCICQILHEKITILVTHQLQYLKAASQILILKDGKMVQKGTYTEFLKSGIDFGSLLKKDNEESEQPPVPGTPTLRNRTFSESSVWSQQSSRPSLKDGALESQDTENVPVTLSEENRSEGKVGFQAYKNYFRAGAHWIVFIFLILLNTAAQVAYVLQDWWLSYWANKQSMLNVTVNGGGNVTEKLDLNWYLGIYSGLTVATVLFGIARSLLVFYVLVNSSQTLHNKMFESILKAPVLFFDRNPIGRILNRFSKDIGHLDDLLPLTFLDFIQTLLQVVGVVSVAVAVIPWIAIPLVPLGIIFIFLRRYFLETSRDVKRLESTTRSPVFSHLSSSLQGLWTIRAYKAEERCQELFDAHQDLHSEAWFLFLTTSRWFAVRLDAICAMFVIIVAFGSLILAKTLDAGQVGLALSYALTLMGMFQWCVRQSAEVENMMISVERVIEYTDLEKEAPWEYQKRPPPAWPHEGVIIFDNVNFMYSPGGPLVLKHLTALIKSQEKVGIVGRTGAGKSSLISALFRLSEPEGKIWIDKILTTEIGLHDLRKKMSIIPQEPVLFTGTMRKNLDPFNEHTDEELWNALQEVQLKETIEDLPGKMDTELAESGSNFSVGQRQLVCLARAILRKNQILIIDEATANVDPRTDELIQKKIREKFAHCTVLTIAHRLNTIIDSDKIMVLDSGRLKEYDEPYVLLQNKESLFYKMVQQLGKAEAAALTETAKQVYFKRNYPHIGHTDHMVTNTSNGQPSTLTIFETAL
Description: as §2

CCc1oc2ccccc2c1C(=O)c1cc(Br)c(O)c(Br)c1 [Benzbromarone]
Accumulation (counts per minute; CPM) with AMP (MRP2): 198 CPM and 209 CPM | Accumulation (counts per minute; CPM) with ATP (MRP2): 183 CPM and 176 CPM | Accumulation (counts per minute; CPM) HEK293FT-MOCK (OAT1): 48 CPM and 31 CPM and 32 CPM and 38 CPM | Accumulation (counts per minute; CPM) HEK293FT-OAT1 (OAT1): 76 CPM and 82 CPM and 74 CPM and 83 CPM

CC#CC(CC(=O)OC1OC(C(=O)O)C(O)C(O)C1O)c1ccc(OCC(C)=C(C)C)cc1 (stereo not shown) [M15]
human % of parent at 60 min [1]: 1.44% | rat % of parent at 120 min [2]: 2.88%

CN(C)C(=O)CCSC(SCCC(=O)O)c1cccc(/C=C/c2ccc3ccc(Cl)cc3n2)c1 (stereo not shown) [MK571]
Accumulation (counts per minute; CPM) with AMP (MRP3): 193 CPM and 200 CPM and 153 CPM and 106 CPM | Accumulation (counts per minute; CPM) with ATP (MRP3): 299 CPM and 302 CPM and 151 CPM and 183 CPM | Accumulation (counts per minute; CPM) with AMP (MRP4): 1227 CPM and 1197 CPM | Accumulation (counts per minute; CPM) with ATP (MRP4): 1356 CPM and 1304 CPM
